From article PMC9855884, “Glycosylated Lipopeptides—Synthesis and Evaluation of Antimicrobial Activity and Cytotoxicity” (Biomolecules, 2023)
Values after ≈ are worked out from the molar mass of the structure shown. Where a SMILES comes first, the peptide text is derived from it. The star is where a group is joined. βGlcNAc = CC(=O)N[C@@H]1[C@@H](O)[C@H](O)[C@@H](CO)O[C@H]1*; Stearoyl = CCCCCCCCCCCCCCCCCC(=O)*; Palmitoyl = CCCCCCCCCCCCCCCC(=O)*; Myristoyl = CCCCCCCCCCCCCC(=O)*

Key:
C. glabrata ATCC 15126 = format: cell-based, Candida glabrata; conditions: ATCC 15126, 24 h
Description: (§1) The Acinetobacter baumannii ATCC BAA-1605, Enterococcus faecium ATCC 700221, Klebsiella aerogenes ATCC 13048, Klebsiella pneumoniae ATCC 700603, Pseudomonas aeruginosa ATCC 9027, Staphylococcus aureus ATCC 33591, Candida glabrata ATCC 15126, strains were acquired from the American Type Culture Collection (ATCC). All the strains were stored at −80 °C in Roti-Store cryo vials and were transferred into fresh Mueller–Hinton broth (MHB, Becton Dickinson, Warsaw, Poland) for bacteria or RPMI-1640 (Sigma-Aldrich, Steinheim, Germany) for fungi before the tests and incubated for 24 h at 37 °C. Then, the cultures were seeded on the Mueller–Hinton agar (BioMaxima, Lublin, Poland) or Sabouraud dextrose agar (SDA, BioMaxima, Lublin, Poland) plates, respectively, and incubated as just mentioned. These agar cultures were used for further microbiological assays. Cell densities for all assays were adjusted spectrophotometrically (Multiskan GO Microplate Spectrophotometer, Thermo Fisher Scientific, Vantaa, Finland) at 600 and 530 nm for bacteria and fungi, respectively.
(§2) The MICs were determined using a broth microdilution method according to the Clinical and Laboratory Standard Institute guidelines. For this purpose, initial inoculums of bacteria (5 × 10^5 CFU/mL) in MHB and yeasts (2 × 10^3 CFU/mL) in RPMI-1640 with 2% D-glucose were exposed to the ranging concentration of lipopeptides (1–512 μg/mL) and incubated at 37 °C for 18 h and 24 h, respectively. The experiments were conducted on 96-well microtiter polystyrene plates (Kartell, Italy). The growth was assessed visually after incubation and the MIC was assumed as the lowest peptide concentration at which a noticeable growth of microorganisms was inhibited. All experiments were conducted in triplicate.

P. aeruginosa ATCC 9027 = format: cell-based, Pseudomonas aeruginosa; conditions: ATCC 9027, 18 h
Description: as §1, §2

K. aerogenes ATCC 13048 = format: cell-based, Klebsiella aerogenes; conditions: ATCC 13048, 18 h
Description: as §1, §2

[1] = system: A. baumannii ATCC BAA 1605; format: cell-based, Acinetobacter baumannii; conditions: ATCC BAA 1605, 18 h
Description: as §1, §2

MTT assay, cytotoxicity = format: cell-based, human; conditions: human, HaCaT keratinocytes, 24 h incubation at 37 °C, 0.5–500 μg/mL, six replicates per concentration, repeated at least twice
Description: To evaluate the cytotoxicity of the test peptides (IC50), the classic MTT assay on 96-well plates was performed for human keratinocytes (HaCaT) which were acquired from the ATCC. The assay was based on colorimetric determination of the cell metabolic activity where the color intensity reflected the number of live cells that could be measured spectrophotometrically. The cell line was cultured in a Dulbecco’s modified Eagle Medium (Invitrogen) supplemented with 10% fetal bovine serum (v/v), 100 units/mL of penicillin, 100 μg/mL of streptomycin, and 2 mM L-glutamine and was kept at 37 °C in a humidified 5% CO2 incubator. Briefly, a day after plating of 500 cells per well, a series of concentrations (0.5–500 μg/mL) of the test compounds were applied. DMSO was added to the control cells at a final concentration of 1.0% (v/v), which was related to the maximum concentration of the solvent compounds used in the experiment. After 24 h of incubation at 37 °C (humidified 5% CO2 incubator) with the peptides, a medium containing 1 mg/mL of MTT was added to the wells up to a final concentration of 0.5 mg/mL. Subsequently, the plates were incubated at 37 °C for 4 h. Then, the medium was aspirated, and the formazan product was solubilized with DMSO. The background absorbance at 630 nm was subtracted from that at 570 nm for each well (Epoch, BioTek Instruments, Winooski, VT, USA). Six replicates were conducted for each concentration. All experiments were repeated at least twice and the resulting IC50 values were calculated with a GraFit 7 software (v. 7.0, Erithacus, Berkley, CA, USA).
The selectivity indexes were calculated for all the strains as IC50/MIC. According to IC50, in most cases, glycosylation caused only a slight decrease in toxicity. However, in contrast with SI calculated for HC50, the differences between USCLs and gUSCLs are not so distinct. […] Moreover, toxicity of USCLs and gUSCLs is high and exceeds their antimicrobial activity. The lipopetides were not selective against Gram-negative strains (K. pneumoniae, A. baumannii, P. aeruginosa, K. aerogenes) over human cells. A few USCLs were selective (SI > 1) against E. faecium and S. aureus with SI up to 1.87; and some gUSCLs were selective against E. faecium but not against S. aureus, with SI between 0.63 and 1.73. […] In this case, SI of gUSCLs was noticeably […] than that of corresponding parent USCLs (2.07, 1.99, 2.67 vs. 2.53, 2.36, 3.46, respectively). Selectivity indexes were plotted against adjusted retention time (Figures S15–S21). A moderate linear correlation was found in USCLs and K. pneumoniae, C. glabrata, and gUSCLs and K. pneumoniae, K. aerogenes (R^2 between 0.6064 and 0.6481). A relatively high linear correlation was obtained for USCLs and K. aerogenes (R^2 of 0.8214) and also for gUSCLs and C. glabrata (R^2 of 0.9223).

MIC (C. glabrata ATCC 15126) | MIC (P. aeruginosa ATCC 9027) | MIC (K. aerogenes ATCC 13048) | MIC [1] | Compound | IC50 at 24 h (MTT assay, cytotoxicity)
128 µg/mL (≈ 154 µM) | 256 µg/mL (≈ 308 µM) | >512 µg/mL | 64 µg/mL (≈ 77.1 µM) | CCCCCCCCCCCCCC(=O)N[C@@H](CCCNC(=N)N)C(=O)N[C@@H](CCCNC(=N)N)C(=O)N[C@@H](CO[C@@H]1O[C@H](CO)[C@@H](O)[C@H](O)[C@H]1NC(C)=O)C(N)=O [Peptide 12, C14-RRS(GlcNAc)-NH2] (Myristoyl-Arg-Arg-Ser(βGlcNAc)-NH2) | 20.5 ± 3.05 µg/mL (≈ 24.6 µM)
8 µg/mL (≈ 12.2 µM) | 16 µg/mL (≈ 24.4 µM) | 64 µg/mL (≈ 97.7 µM) | 32 µg/mL (≈ 48.9 µM) | CCCCCCCCCCCCCCCC(=O)N[C@@H](CCCNC(=N)N)C(=O)N[C@@H](CCCNC(=N)N)C(=O)N[C@@H](CO)C(N)=O [Peptide 6, C16-RRS-NH2] (Palmitoyl-Arg-Arg-Ser-NH2) | 7.84 ± 1.44 µg/mL (≈ 12 µM)
4 µg/mL (≈ 4.51 µM) | 32 µg/mL (≈ 36.1 µM) | 32 µg/mL (≈ 36.1 µM) | 32 µg/mL (≈ 36.1 µM) | CCCCCCCCCCCCCCCCCC(=O)N[C@@H](CCCNC(=N)N)C(=O)N[C@@H](CCCNC(=N)N)C(=O)N[C@@H](CO[C@@H]1O[C@H](CO)[C@@H](O)[C@H](O)[C@H]1NC(C)=O)C(N)=O [Peptide 18, C18-RRS(GlcNAc)-NH2] (Stearoyl-Arg-Arg-Ser(βGlcNAc)-NH2) | 13.8 ± 1.71 µg/mL (≈ 15.6 µM)
16 µg/mL (≈ 18.6 µM) | 32 µg/mL (≈ 37.3 µM) | 64 µg/mL (≈ 74.6 µM) | 32 µg/mL (≈ 37.3 µM) | CCCCCCCCCCCCCCCC(=O)N[C@@H](CCCNC(=N)N)C(=O)N[C@@H](CO[C@@H]1O[C@H](CO)[C@@H](O)[C@H](O)[C@H]1NC(C)=O)C(=O)N[C@@H](CCCNC(=N)N)C(N)=O [Peptide 14, C16-RS(GlcNAc)R-NH2] (Palmitoyl-Arg-Ser(βGlcNAc)-Arg-NH2) | 14.1 ± 3.48 µg/mL (≈ 16.4 µM)
4 µg/mL (≈ 4.51 µM) | 32 µg/mL (≈ 36.1 µM) | 32 µg/mL (≈ 36.1 µM) | 16 µg/mL (≈ 18.1 µM) | CCCCCCCCCCCCCCCCCC(=O)N[C@@H](CO[C@@H]1O[C@H](CO)[C@@H](O)[C@H](O)[C@H]1NC(C)=O)C(=O)N[C@@H](CCCNC(=N)N)C(=O)N[C@@H](CCCNC(=N)N)C(N)=O [Peptide 16, C18-S(GlcNAc)RR-NH2] (Stearoyl-Ser(βGlcNAc)-Arg-Arg-NH2) | 10.1 ± 0.66 µg/mL (≈ 11.4 µM)
16 µg/mL (≈ 18.6 µM) | 64 µg/mL (≈ 74.6 µM) | 256 µg/mL (≈ 298 µM) | 32 µg/mL (≈ 37.3 µM) | CCCCCCCCCCCCCCCC(=O)N[C@@H](CCCNC(=N)N)C(=O)N[C@@H](CCCNC(=N)N)C(=O)N[C@@H](CO[C@@H]1O[C@H](CO)[C@@H](O)[C@H](O)[C@H]1NC(C)=O)C(N)=O [Peptide 15, C16-RRS(GlcNAc)-NH2] (Palmitoyl-Arg-Arg-Ser(βGlcNAc)-NH2) | 5.16 ± 1.32 µg/mL (≈ 6.01 µM)
32 µg/mL (≈ 37.3 µM) | 32 µg/mL (≈ 37.3 µM) | 512 µg/mL (≈ 597 µM) | 32 µg/mL (≈ 37.3 µM) | CCCCCCCCCCCCCCCC(=O)N[C@@H](CO[C@@H]1O[C@H](CO)[C@@H](O)[C@H](O)[C@H]1NC(C)=O)C(=O)N[C@@H](CCCNC(=N)N)C(=O)N[C@@H](CCCNC(=N)N)C(N)=O [Peptide 13, C16-S(GlcNAc)RR-NH2] (Palmitoyl-Ser(βGlcNAc)-Arg-Arg-NH2) | 10.6 ± 2.04 µg/mL (≈ 12.4 µM)
4 µg/mL (≈ 5.86 µM) | 64 µg/mL (≈ 93.7 µM) | 32 µg/mL (≈ 46.9 µM) | 32 µg/mL (≈ 46.9 µM) | CCCCCCCCCCCCCCCCCC(=O)N[C@@H](CCCNC(=N)N)C(=O)N[C@@H](CCCNC(=N)N)C(=O)N[C@@H](CO)C(N)=O [Peptide 9, C18-RRS-NH2] (Stearoyl-Arg-Arg-Ser-NH2) | 10.7 ± 1.61 µg/mL (≈ 15.6 µM)
4 µg/mL (≈ 5.86 µM) | 64 µg/mL (≈ 93.7 µM) | 32 µg/mL (≈ 46.9 µM) | 64 µg/mL (≈ 93.7 µM) | CCCCCCCCCCCCCCCCCC(=O)N[C@@H](CCCNC(=N)N)C(=O)N[C@@H](CO)C(=O)N[C@@H](CCCNC(=N)N)C(N)=O [Peptide 8, C18-RSR-NH2] (Stearoyl-Arg-Ser-Arg-NH2) | 7.97 ± 1.51 µg/mL (≈ 11.7 µM)
128 µg/mL (≈ 154 µM) | 128 µg/mL (≈ 154 µM) | >512 µg/mL | 64 µg/mL (≈ 77.1 µM) | CCCCCCCCCCCCCC(=O)N[C@@H](CCCNC(=N)N)C(=O)N[C@@H](CO[C@@H]1O[C@H](CO)[C@@H](O)[C@H](O)[C@H]1NC(C)=O)C(=O)N[C@@H](CCCNC(=N)N)C(N)=O [Peptide 11, C14-RS(GlcNAc)R-NH2] (Myristoyl-Arg-Ser(βGlcNAc)-Arg-NH2) | 25.2 ± 3.47 µg/mL (≈ 30.3 µM)
32 µg/mL (≈ 51 µM) | 64 µg/mL (≈ 102 µM) | 512 µg/mL (≈ 817 µM) | 64 µg/mL (≈ 102 µM) | CCCCCCCCCCCCCC(=O)N[C@@H](CCCNC(=N)N)C(=O)N[C@@H](CO)C(=O)N[C@@H](CCCNC(=N)N)C(N)=O [Peptide 2, C14-RSR-NH2] (Myristoyl-Arg-Ser-Arg-NH2) | 15 ± 2.05 µg/mL (≈ 23.9 µM)
4 µg/mL (≈ 6.11 µM) | 16 µg/mL (≈ 24.4 µM) | 16 µg/mL (≈ 24.4 µM) | 32 µg/mL (≈ 48.9 µM) | CCCCCCCCCCCCCCCC(=O)N[C@@H](CO)C(=O)N[C@@H](CCCNC(=N)N)C(=O)N[C@@H](CCCNC(=N)N)C(N)=O [Peptide 4, C16-SRR-NH2] (Palmitoyl-Ser-Arg-Arg-NH2) | 4.02 ± 1.17 µg/mL (≈ 6.14 µM)
4 µg/mL (≈ 4.51 µM) | 32 µg/mL (≈ 36.1 µM) | 32 µg/mL (≈ 36.1 µM) | 16 µg/mL (≈ 18.1 µM) | CCCCCCCCCCCCCCCCCC(=O)N[C@@H](CCCNC(=N)N)C(=O)N[C@@H](CO[C@@H]1O[C@H](CO)[C@@H](O)[C@H](O)[C@H]1NC(C)=O)C(=O)N[C@@H](CCCNC(=N)N)C(N)=O [Peptide 17, C18-RS(GlcNAc)R-NH2] (Stearoyl-Arg-Ser(βGlcNAc)-Arg-NH2) | 9.45 ± 0.89 µg/mL (≈ 10.7 µM)
256 µg/mL (≈ 308 µM) | 256 µg/mL (≈ 308 µM) | >512 µg/mL | 128 µg/mL (≈ 154 µM) | CCCCCCCCCCCCCC(=O)N[C@@H](CO[C@@H]1O[C@H](CO)[C@@H](O)[C@H](O)[C@H]1NC(C)=O)C(=O)N[C@@H](CCCNC(=N)N)C(=O)N[C@@H](CCCNC(=N)N)C(N)=O [Peptide 10, C14-S(GlcNAc)RR-NH2] (Myristoyl-Ser(βGlcNAc)-Arg-Arg-NH2) | 32.1 ± 6.26 µg/mL (≈ 38.7 µM)
8 µg/mL (≈ 12.2 µM) | 64 µg/mL (≈ 97.7 µM) | 32 µg/mL (≈ 48.9 µM) | 32 µg/mL (≈ 48.9 µM) | CCCCCCCCCCCCCCCC(=O)N[C@@H](CCCNC(=N)N)C(=O)N[C@@H](CO)C(=O)N[C@@H](CCCNC(=N)N)C(N)=O [Peptide 5, C16-RSR-NH2] (Palmitoyl-Arg-Ser-Arg-NH2) | 5.72 ± 2.27 µg/mL (≈ 8.73 µM)
32 µg/mL (≈ 51 µM) | 64 µg/mL (≈ 102 µM) | 512 µg/mL (≈ 817 µM) | 64 µg/mL (≈ 102 µM) | CCCCCCCCCCCCCC(=O)N[C@@H](CCCNC(=N)N)C(=O)N[C@@H](CCCNC(=N)N)C(=O)N[C@@H](CO)C(N)=O [Peptide 3, C14-RRS-NH2] (Myristoyl-Arg-Arg-Ser-NH2) | 14.3 ± 1.96 µg/mL (≈ 22.8 µM)
